IC50 and EC50 data for 5 molecules are collected here from patent US20260049076A1, “Tertiary Amine Substituted Bicyclic Compounds Useful as T Cell Activators” (BRISTOL-MYERS SQUIBB COMPANY, priority 2022, published 2026).

One test concerns the target T1, human DGKα (Homo sapiens, UniProt P23743).
T1 construct: TVMV protease cleavage site (C); Hexa-His (C); made in house; host or cells: Sf9 insect cells (baculovirus)
As to the kind of experiment: In vitro DGK inhibition assay, DGKα liposome (LIPGLO) assay. In kind it is biochemical. The settings on record: read-out: Enzyme Inhibition DGKalpha IC50. The essentials: (§1)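 Baculovirus/Sf9-expressed His-tagged human DGKα or DGKζ (5 nM) on extruded liposomes (2 mM PS, 0.25 mM DAG, 2.75 mM PC) in MOPS pH 7.5 with MgCl2, CaCl2 and 150 μM ATP, 1 h.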

A further test deals with DGKalpha (Homo sapiens, UniProt P23743). As to the kind of experiment: Translocation DGKalpha. In kind it is cell-based.
Sequence of DGKalpha (P23743 whole entry): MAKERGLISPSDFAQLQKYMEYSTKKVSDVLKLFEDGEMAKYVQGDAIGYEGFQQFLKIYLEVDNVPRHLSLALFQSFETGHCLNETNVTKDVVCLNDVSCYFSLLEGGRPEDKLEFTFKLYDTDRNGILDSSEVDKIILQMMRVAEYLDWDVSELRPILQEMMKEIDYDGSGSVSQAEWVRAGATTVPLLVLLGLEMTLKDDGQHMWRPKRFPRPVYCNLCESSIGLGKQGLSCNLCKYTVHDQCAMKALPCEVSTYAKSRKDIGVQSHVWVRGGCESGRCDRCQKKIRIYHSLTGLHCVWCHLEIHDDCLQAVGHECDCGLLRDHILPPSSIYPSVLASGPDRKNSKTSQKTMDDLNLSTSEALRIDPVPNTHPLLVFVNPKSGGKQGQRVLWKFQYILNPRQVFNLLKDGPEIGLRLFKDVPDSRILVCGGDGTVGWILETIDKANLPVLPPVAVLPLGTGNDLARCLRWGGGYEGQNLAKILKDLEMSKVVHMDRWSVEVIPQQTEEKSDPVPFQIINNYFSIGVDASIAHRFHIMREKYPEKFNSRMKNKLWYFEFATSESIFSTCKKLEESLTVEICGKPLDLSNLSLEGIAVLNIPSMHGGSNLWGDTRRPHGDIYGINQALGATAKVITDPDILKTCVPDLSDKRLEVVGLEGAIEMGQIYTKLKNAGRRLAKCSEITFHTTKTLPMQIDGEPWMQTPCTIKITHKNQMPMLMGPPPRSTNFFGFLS
A further test concerns the target T2, human DGKζ (Homo sapiens, UniProt Q13574).
T2 construct: TVMV protease cleavage site (C); Hexa-His (C); made in house; host or cells: Sf9 insect cells (baculovirus)
As to the kind of experiment: In vitro DGK inhibition assay, DGKζ liposome (LIPGLO) assay. Format: biochemical. The note with it: read-out: Enzyme Inhibition DGKzeta IC50. The essentials:
as §1

Another test addresses DGKzeta (Homo sapiens, UniProt Q13574). As to the kind of experiment: Translocation DGKzeta. Format: cell-based.

Structures are written as SMILES. pEC50, pIC50: −log10 of the molar value. A value given as a limit tells only on which side of the number the result lay.

Sequence of DGKzeta (Q13574 whole entry): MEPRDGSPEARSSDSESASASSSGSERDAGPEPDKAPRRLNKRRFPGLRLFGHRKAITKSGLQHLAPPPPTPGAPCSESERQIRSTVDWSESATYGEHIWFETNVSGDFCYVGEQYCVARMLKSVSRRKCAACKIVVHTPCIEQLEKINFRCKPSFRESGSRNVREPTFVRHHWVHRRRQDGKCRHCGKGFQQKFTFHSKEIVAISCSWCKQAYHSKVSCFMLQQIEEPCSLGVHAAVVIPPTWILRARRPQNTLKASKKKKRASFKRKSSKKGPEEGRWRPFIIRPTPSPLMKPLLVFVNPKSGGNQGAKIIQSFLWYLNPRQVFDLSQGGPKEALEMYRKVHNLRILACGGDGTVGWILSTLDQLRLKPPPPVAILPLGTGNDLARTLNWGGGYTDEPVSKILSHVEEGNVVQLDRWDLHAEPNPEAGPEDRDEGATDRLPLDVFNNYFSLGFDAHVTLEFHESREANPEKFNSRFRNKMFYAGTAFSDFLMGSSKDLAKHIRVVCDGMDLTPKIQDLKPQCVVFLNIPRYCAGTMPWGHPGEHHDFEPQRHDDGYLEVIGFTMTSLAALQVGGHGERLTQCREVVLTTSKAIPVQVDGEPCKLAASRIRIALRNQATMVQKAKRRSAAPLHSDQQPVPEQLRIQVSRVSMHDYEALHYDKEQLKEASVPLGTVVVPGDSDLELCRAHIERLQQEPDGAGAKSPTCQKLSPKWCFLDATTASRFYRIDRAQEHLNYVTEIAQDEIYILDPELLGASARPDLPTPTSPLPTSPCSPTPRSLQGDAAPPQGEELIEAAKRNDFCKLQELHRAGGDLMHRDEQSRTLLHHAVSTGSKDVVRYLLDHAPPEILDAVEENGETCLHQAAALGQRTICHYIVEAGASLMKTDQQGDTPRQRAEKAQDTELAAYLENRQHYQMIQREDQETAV
T2 sequence (Q13574 with tags, fused parts or gaps isoform Q13574-4): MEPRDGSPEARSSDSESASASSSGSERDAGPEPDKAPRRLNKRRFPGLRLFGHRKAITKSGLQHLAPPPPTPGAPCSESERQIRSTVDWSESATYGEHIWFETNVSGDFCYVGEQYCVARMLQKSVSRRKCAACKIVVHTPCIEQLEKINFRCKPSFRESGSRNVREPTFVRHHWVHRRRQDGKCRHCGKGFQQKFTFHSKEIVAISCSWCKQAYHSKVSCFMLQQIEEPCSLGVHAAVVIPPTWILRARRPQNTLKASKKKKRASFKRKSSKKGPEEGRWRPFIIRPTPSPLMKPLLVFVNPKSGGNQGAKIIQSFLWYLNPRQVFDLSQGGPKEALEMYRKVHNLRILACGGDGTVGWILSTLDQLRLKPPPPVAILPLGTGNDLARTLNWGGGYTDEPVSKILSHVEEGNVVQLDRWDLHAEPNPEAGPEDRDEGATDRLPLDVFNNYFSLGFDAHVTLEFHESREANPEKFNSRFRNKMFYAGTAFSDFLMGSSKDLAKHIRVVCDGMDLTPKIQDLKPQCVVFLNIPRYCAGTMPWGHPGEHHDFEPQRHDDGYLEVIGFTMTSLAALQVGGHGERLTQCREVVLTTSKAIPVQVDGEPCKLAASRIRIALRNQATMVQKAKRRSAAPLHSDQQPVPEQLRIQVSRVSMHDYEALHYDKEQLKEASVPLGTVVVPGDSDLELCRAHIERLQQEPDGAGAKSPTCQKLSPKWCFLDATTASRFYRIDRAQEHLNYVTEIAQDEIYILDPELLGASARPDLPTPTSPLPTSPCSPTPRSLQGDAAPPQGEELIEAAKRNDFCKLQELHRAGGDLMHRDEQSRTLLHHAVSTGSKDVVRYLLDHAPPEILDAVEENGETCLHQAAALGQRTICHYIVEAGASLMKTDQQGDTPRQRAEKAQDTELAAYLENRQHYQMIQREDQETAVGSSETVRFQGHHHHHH
T1 sequence (P23743 with tags, fused parts or gaps): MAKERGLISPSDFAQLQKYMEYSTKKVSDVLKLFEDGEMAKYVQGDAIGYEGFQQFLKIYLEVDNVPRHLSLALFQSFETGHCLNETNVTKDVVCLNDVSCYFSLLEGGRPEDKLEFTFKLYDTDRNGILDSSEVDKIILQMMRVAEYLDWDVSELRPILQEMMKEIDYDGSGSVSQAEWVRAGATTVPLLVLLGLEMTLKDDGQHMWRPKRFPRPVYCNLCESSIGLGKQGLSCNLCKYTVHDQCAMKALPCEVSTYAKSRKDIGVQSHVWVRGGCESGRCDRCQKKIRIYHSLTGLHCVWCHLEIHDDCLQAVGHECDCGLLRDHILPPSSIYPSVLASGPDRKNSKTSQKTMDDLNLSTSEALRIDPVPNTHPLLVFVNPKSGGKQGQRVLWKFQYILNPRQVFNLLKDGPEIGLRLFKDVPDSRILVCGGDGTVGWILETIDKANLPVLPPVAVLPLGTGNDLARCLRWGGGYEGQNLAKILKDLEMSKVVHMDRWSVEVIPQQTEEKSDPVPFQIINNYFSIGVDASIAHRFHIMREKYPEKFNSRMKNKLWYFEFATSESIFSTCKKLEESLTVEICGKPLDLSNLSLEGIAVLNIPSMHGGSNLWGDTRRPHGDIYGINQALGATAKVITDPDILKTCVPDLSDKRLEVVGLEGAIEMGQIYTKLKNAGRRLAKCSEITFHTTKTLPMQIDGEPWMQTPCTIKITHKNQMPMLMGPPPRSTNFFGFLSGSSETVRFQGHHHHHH

Regarding `COc1cccc(-c2cc(N(CC3CC3)c3cc(=O)n(C)c4ccc(C#N)nc34)ccc2C2CC2)c1` [Example 129, 8-((6-cyclopropyl-3′-methoxy-[1,1′-biphenyl]-3-yl)(cyclopropylmethyl)amino)-5-methyl-6-oxo-5,6-dihydro-1,5-naphthyridine-2-carbonitrile], the pIC50 at human DGKα and on human DGKζ was under 4.42 each time. Also, the results for the pEC50 at DGKalpha and on DGKzeta were under 5.82 and 6.89, respectively.
Regarding `Cn1c(=O)cc(N(CC2CC2)c2ccc(C3CC3)c(-c3ccc(C(N)=O)cc3)c2)c2nc(C#N)ccc21` [Example 130, 5′-((6-cyano-1-methyl-2-oxo-1,2-dihydro-1,5-naphthyridin-4-yl)(cyclopropylmethyl)amino)-2′-cyclopropyl-[1,1′-biphenyl]-4-carboxamide], the pIC50 on human DGKα and at human DGKζ was under 4.42 throughout. Further, the figures for the pEC50 on DGKalpha and on DGKzeta were under 5.52 and 6.80, respectively.
As to `Cn1c(=O)cc(N(CC2CC2)c2ccc(C3CC3)c(-c3ccc(OCC4CC4)cc3)c2)c2nc(C#N)ccc21` [Example 131, 8-((6-cyclopropyl-4′-(cyclopropylmethoxy)-[1,1′-biphenyl]-3-yl) (cyclopropylmethyl)amino)-5-methyl-6-oxo-5,6-dihydro-1,5-naphthyridine-2-carbonitrile], the results for the pIC50 on human DGKα and on human DGKζ were under 4.42 and 4.47, respectively. The pEC50 at DGKalpha is under 5.52; at DGKzeta, 6.74.
For `Cc1cc(N(CC2CC2)c2cc(=O)n(C)c3ccc(C#N)nc23)ccc1C1CC1` [Example 132] the same measures were under 4.42, 5.44, under 5.52 and 6.70.
Take `CC(=O)N(C)c1ccc(N(CC2CC2)c2cc(=O)n(C)c3ccc(C#N)nc23)cc1` [Example 133]: the pIC50 at human DGKα is under 4.42; at human DGKζ, 5.36. Moreover, the pEC50 on DGKalpha is under 5.52; on DGKzeta it was 6.24.

Usually pIC50 stands for the negative decadic logarithm of the IC50, by convention in mol/L. By pEC50 is commonly meant the negative decadic logarithm of the EC50, by convention in mol/L. Higher therefore signals a small EC50.
